Here are results for 14 molecules from patent publication US11560365B2, “Non-fluorescent rhodamines” (THE UNIVERSITY OF TOKYO, priority 2018, dated 2023).

Data set [1] can be described thus: Optical properties: relative fluorescence quantum yield with reference to Rhodamine B. To be noted: for fluorescence quantum yield (Φfl): relative to Rhodamine B. It counts as physicochemical. The protocol:
The optical properties of the compound synthesized in the above Synthesis Examples were evaluated. The results are illustrated in FIG. 4.
(a to c) of FIG. 4 illustrate chemical structures of tetramethylrhodamine (TMR) (a), 4-Cl TMR (b) and 4,5-diCl TMR (c), the fluorescence quantum yields (Φf1) in MeOH containing 0.1% TFA, absorption maximum (λabs) and emission maximum (λem). Φf1 is a relative fluorescence quantum yield determined with reference to Rhodamine B (Φf1=0.65) of EtOH.
(d to f) of FIG. 4 illustrates absorption spectra and emission spectra of 1 μM TMR (d), 4-Cl TMR (e) and 4,5-diCl TMR (f) in MeOH containing 0.1% TFA and 0.1% DMSO.
(a to c) of FIG. 6 illustrate chemical structures of 2-Cl TMR (a), 2-Me TMR (b) and 2-F TMR (c), the fluorescence quantum yields (Oni) in MeOH containing 0.1% TFA, absorption maximum (λabs) and emission maximum (λem). Φf1 is a relative fluorescence quantum yield determined with reference to Rhodamine B (Φf1=0.65) of EtOH.
(d to f) of FIG. 6 illustrates the absorption spectra and the emission spectra of 1 μM 2-Cl TMR (a), 2-Me TMR (b) and 2-F TMR (c) in MeOH containing 0.1% TFA and 0.1% DMSO.
(a) of FIG. 7 illustrates Φf1, λabs and λem of 2-Cl triMe rhodamine in MeOH containing 0.1% TFA. (b) of FIG. 7 illustrates the absorption spectrum and the emission spectrum of 1 μM 2-Cl triMe rhodamine in MeOH containing 0.1% TFA.

Data set [2] can be described thus: Solvent viscosity dependence of the fluorescence quantum yield. It counts as physicochemical. The protocol: Next, in order to examine whether the non-fluorescence of the newly developed non-fluorescent rhodamine was due to the production of the TICT state, solvent viscosity dependence of the fluorescence quantum yield was examined. Specifically, the absorption, fluorescence spectrum and fluorescence quantum yield were measured in three types of solvents including MeOH (εr=32.6, η=0.61 cP), ethylene glycol (εr=38.7, η=19.9 cP) and glycerol (εr=42.5, η=1412 cP). […] It was expected that if the formation of the TICT state was promoted by the steric hindrance due to the introduction of the substituent, while quenching was performed by the formation of the TICT state in MeOH, in a highly viscous solvent such as glycerol, a rate of intramolecular twist became slow, and the transition to the TICT state was suppressed, so that the fluorescence quantum yield would increase.
(a) of FIG. 5 is Φf1 of 4-Cl TMR in glycerol, ethylene glycol and MeOH. Φf1 is a relative fluorescence quantum yield determined with reference to Rhodamine B (Φf1=0.65) of EtOH. (b and c) of FIG. 5 illustrate the absorption spectrum (b) and the emission spectrum (c) of 1 μM 4-Cl TMR in glycerol, ethylene glycol and MeOH.

The subject of the next data set is CYP3A. To be noted: literature statement; cited from earlier work.
A further data set addresses T1, CYP1A2 (Homo sapiens, UniProt P05177).
T1 sequence (P05177 1-516): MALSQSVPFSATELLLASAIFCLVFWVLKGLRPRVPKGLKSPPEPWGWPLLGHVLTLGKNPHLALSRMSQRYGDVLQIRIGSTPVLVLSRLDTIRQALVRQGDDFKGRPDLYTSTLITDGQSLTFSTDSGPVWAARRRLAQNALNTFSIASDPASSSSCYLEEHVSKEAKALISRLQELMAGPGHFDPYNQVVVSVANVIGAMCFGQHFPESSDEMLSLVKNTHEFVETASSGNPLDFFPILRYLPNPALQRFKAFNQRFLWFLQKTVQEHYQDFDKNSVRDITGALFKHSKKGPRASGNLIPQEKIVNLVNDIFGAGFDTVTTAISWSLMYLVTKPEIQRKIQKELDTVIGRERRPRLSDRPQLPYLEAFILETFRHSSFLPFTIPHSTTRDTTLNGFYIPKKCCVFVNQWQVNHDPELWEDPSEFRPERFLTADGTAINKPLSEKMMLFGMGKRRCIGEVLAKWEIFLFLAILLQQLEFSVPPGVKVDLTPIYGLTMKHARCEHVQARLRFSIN
The conditions noted are these: literature (Stresser et al. 2002); cited from earlier work.

Data set [3] has as its system CYP3A in human liver microsomes. Nature of the data set: Time-dependent fluorescence change with human liver microsomes and NADPH producing system. The protocol:
The human liver microsomes and the NADPH producing system were pre-incubated with 0.1% DMSO or 10 μM ketoconazole for 30 minutes before addition of Compound 29, and the measurement was started immediately after addition of Compound 29.
(Microsomes from liver hold many membrane-bound enzymes, among them those of drug oxidation.)

Another data set deals with CYP3A activity of HepaRG. Nature of the data set: Fluorescence imaging of CYP3A activity in living HepaRG cells. It counts as cell-based. To be noted: 1 μM compound, 37° C. 30 minutes; control and rifampicin groups versus ketoconazole group. As for the experimental part: HepaRG (registered trademark) frozen vial 8M (HPR116-8M) purchased from KAC Co., Ltd. was thawed and inoculated according to the manufacturer's protocol, and cultured for 6 days in an 8-well chamber (Matsunami: SCC-038 collagen coat). Then, it was examined whether Compound 29 could detect the CYP3A activity of HepaRG.
Imaging was performed on three types of control group, inhibitor-added group, and derivative-added group.
Ketoconazole was used as an inhibitor. Rifampicin was used as an inducer of the CYP3A activity. […]
Here, FIG. 18 illustrates a fluorescence image (control) of HepaRG obtained when HepaRG to which 0.1% DMSO was added for 3 days was pretreated with 0.1% DMSO for 30 minutes, then 1 μM of Compound 29 was added, and the mixture was incubated at 37° C. for 30 minutes, a fluorescence image (+ inhibitor) of HepaRG obtained when 0.1% DMSO was added for 3 days and pretreated with 1 μM ketoconazole for 30 minutes before imaging, then Compound 29 was added, and the mixture was incubated at 37° C. for 30 minutes, and a fluorescence image obtained when 20 μM rifampicin were added for 3 days and was pretreated with 0.1% DMSO for 30 minutes, then Compound 29 was added, and the mixture was further incubated at 37° C. for 30 minutes. […]

The next data set concerns the target CYP3A4 (Homo sapiens, UniProt P08684). Put plainly: Absorption/fluorescence spectrum changes on reaction with CYP3A4. It counts as biochemical. The conditions noted are these: 1 μM compound, CYP3A4 10 nM. The text has this:
Next, as a representative of the compounds illustrated in FIG. 15, absorption/fluorescence spectrum changes when Compound 29 (illustrated below) was reacted with CYP3A4 were shown (FIG. 16).

For data set [4] the following is noted: in EtOH; cited from earlier work.

Sequence of CYP3A4 (P08684 whole entry): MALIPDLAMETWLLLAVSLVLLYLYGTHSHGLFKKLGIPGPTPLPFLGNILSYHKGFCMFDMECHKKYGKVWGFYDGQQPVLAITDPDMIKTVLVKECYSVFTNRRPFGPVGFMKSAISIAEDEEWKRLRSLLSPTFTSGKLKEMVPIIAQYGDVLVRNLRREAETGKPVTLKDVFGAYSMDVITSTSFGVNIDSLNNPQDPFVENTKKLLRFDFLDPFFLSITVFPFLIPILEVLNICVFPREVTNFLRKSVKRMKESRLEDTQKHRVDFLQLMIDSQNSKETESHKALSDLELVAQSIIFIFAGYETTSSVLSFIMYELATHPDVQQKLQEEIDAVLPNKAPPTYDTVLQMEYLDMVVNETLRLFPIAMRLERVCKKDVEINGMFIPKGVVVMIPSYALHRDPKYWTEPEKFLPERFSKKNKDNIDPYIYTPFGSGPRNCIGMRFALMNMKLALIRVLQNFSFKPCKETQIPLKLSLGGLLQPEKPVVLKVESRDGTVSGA

Consider `CN(C)c1ccc2c(-c3ccccc3C(=O)O)c3cc(Cl)c(=[N+](C)C)cc-3oc2c1` [2-Cl TMR, 2-ClTMR], for which the “fluorescence behaviour (in words)” value in data set [1] (MeOH containing 0.1% TFA) is listed as “exhibited non-fluorescence”.

`C/N=c1\cc2oc3cc(N(C)C)ccc3c(-c3ccccc3C(=O)O)c-2cc1Cl` [2-Cl triMe rhodamine] came in with a fluorescence quantum yield in data set [1] (MeOH containing 0.1% TFA) of 15%.

Take `CN(C)c1ccc2c(-c3ccccc3C(=O)O)c3cc(F)c(=[N+](C)C)cc-3oc2c1` [2-F TMR, 2-FTMR]: the fluorescence quantum yield entry in data set [1] (MeOH containing 0.1% TFA) was “about 10%”.

With `Cc1cc2c(-c3ccccc3C(=O)O)c3ccc(N(C)C)cc3oc-2cc1=[N+](C)C` [2-Me TMR, 2-MeTMR], in data set [1] (MeOH containing 0.1% TFA), the fluorescence quantum yield result was “about 1%”.

With `Cc1ccccc1-c1c2ccc(=[N+](C)C)c(Cl)c-2oc2c(Cl)c(N(C)C)ccc12` [4,5-diCl TMR, 4,5-diClTMR], the “fluorescence quantum yield (Φfl)” value in data set [1] (MeOH containing 0.1% TFA) was 0.001.

`COc1cccc(OC)c1C1=C2C=CC(=[N+](C)C)C(Cl)=C2[Si](C)(C)c2c1ccc(N(C)C)c2Cl` [4,5-diCl TMSiR] had a fluorescence quantum yield in data set [1] (Si-rhodamines, Example 5) of at most 0.1%.

As for `Cc1ccccc1-c1c2ccc(=[N+](C)C)c(Cl)c-2oc2cc(N(C)C)ccc12` [4-Cl TMR, 4-ClTMR], the “fluorescence quantum yield (Φfl)” value is recorded as 0.003 in data set [1] (MeOH containing 0.1% TFA), 0.003 in data set [2] (MeOH (η=0.61 cP)), 0.01 in data set [2] (ethylene glycol (η=19.9 cP)) and 0.09 in data set [2] (glycerol (η=1412 cP)).

In turn, `Cc1ccccc1C1=C2C=CC(=[N+](C)C)C(Cl)=C2[Si](C)(C)c2cc(N(C)C)ccc21` [4-Cl TMSiR] came in with a fluorescence quantum yield in data set [1] (Si-rhodamines, Example 5) of 1%.

On to `O=c1cc(C(F)(F)F)c2ccc(OCc3ccccc3)cc2o1` [BFC, 7-benzyloxy-4-trifluoromethylcoumarin], for which the “metabolism by CYP3A” value in the data set with CYP3A is listed as “metabolized by CYP3A”. The “metabolism by CYP1A2” value on CYP1A2 is “metabolized to some extent by CYP1A2”.

For `c1ccc(COc2ccc3cccnc3c2)cc1` [BQ, 7-benzyloxyquinoline], the “metabolism by CYP3A” value in the data set on CYP3A was “metabolized by CYP3A”. In addition, the “metabolism by CYP1A2” value at CYP1A2 is “metabolized to some extent by CYP1A2”.

For `CCCCCOCC/[N+](C)=c1/cc2oc3cc(N(C)C)ccc3c(-c3ccccc3C(=O)O)c-2cc1C` [Compound 29], the “fluorescence change on reaction with human liver microsomes” value in data set [3] (pH 7.4) is “showed the increase in fluorescence”. Moreover, the “detection of CYP3A activity in living cells by fluorescence” value in the data set on CYP3A activity of HepaRG is “could detect the CYP3A activity even in living cells”. For the same molecule, the “change of absorption on reaction with CYP3A4” value on CYP3A4 (pH 7.4) is “Shortening the absorption wavelength”. Moreover, at CYP3A4 (pH 7.4, excitation 520 nm), the “change of fluorescence intensity on reaction with CYP3A4” value is “significant increase in fluorescence intensity”.

For the molecule `CCN(CC)c1ccc2c(-c3ccccc3C(=O)O)c3ccc(=[N+](CC)CC)cc-3oc2c1.[Cl-]` [Rhodamine B], the “fluorescence quantum yield (Φfl) of the reference” value in data set [4] is on record as 0.65.

Consider `CC(=O)N1CCN(c2ccc(OCC3COC(Cn4ccnc4)(c4ccc(Cl)cc4Cl)O3)cc2)CC1` (stereo not shown) [ketoconazole, reference compound], for which the “effect of inhibitor on the fluorescence increase of Compound 29 in human liver microsomes” value in data set [3] (10 μM ketoconazole pre-incubated 30 minutes) is recorded as “suppressed”.

For the molecule `Cc1ccccc1-c1c2ccc(=[N+](C)C)cc-2oc2cc(N(C)C)ccc12` [reference compound], in data set [1] (MeOH containing 0.1% TFA), the “fluorescence quantum yield (Φfl)” value was 0.399.
